Two molecules from ChEMBL document CHEMBL1150639, “Antiplasmodial compounds from Cochlospermum tinctorium” (J Nat Prod, 2002) can be followed below.

Usually IC50 stands for the concentration needed to halve the response being measured. Low readings indicate greater potency in that assay, high ones weaker potency in that assay.

In the test the test system is Plasmodium falciparum. The experiment in a line: Antiplasmodial activity against chloroquine-sensitive Plasmodium falciparum 3D7. It is filed as functional, organism-based.

As to `CCCCCCCCCCCC(=O)CCO`, the IC50 turned out to be 68 µM. To `C=C(C)[C@@H]1CC[C@]2(C(=O)O)CC[C@]3(C)[C@H](CC[C@@H]4[C@@]5(C)C[C@@H](O)[C@H](O)C(C)(C)[C@@H]5CC[C@]43C)[C@@H]12` [ALPHITOLIC ACID] belongs 35 µM.
